Where two headings read alike, the source gives them in different places.
How the values were obtained:
CSF1R (FMS) = CSF1R (FMS) (Homo sapiens, UniProt P07333); test: CSF1R inhibition assay (Z'-LYTE); type: biochemical; conditions: read-out: % inhibition of CSF1R
Description: Compounds were assayed as inhibitors of […] in a manner substantially similar to the method described by Invitrogen Corp (Invitrogen Corporation, 1600 Faraday Avenue, Carlsbad, Calif., CA) using the […] biochemical assay procedure or similar biochemical assay. The 2×CSF1R (FMS)/[…] Peptide Mixture was prepared in 50 mM HEPES pH 7.5, 0.01% BRIJ-35, 10 mM MgCl2, 1 mM EGTA. The final […] Kinase Reaction consisted of 0.2-67.3 ng CSF1R (FMS) and 2 μM […] Peptide in 50 mM HEPES pH 7.5, 0.01% BRIJ-35, 10 mM MgCl2, 1 mM EGTA. After the 1 hour Kinase Reaction incubation, 5 μL of a 1:128 dilution of Development Reagent B was added.

c-KIT [1] = molecular target: T1, c-KIT (Homo sapiens, UniProt P10721); test: cKIT inhibition assay (electrophoretic mobility shift); type: biochemical; design: purchased Millipore 14-559
Description: The reaction was started by adding the ATP and incubating for 1 hour at room temperature. […] Phosphorylated and unphosphorylated substrate was separated by charge using electrophoretic mobility shift.

HCV RNA replicon = test: Replicon assay (luciferase, ET Huh7 cell line); conditions: Hepatitis C virus, Huh-7, 72 h, read-out: EC50 replicon assay
Description: The compounds were assayed to evaluate the antiviral activity and cytotoxicity of compounds using replicon-derived luciferase activity. This assay used the cell line ET (luc-ubi-neo/ET), which is a human Huh7 hepatoma cell line that contains an HCV RNA replicon with a stable luciferase (Luc) reporter and three cell culture-adaptive mutations.
The ET cell line was grown in Dulbecco's modified essential media (DMEM), 10% fetal bovine serum (FBS), 1% penicillin-streptomycin (pen-strep), 1% glutamine, 1% non essential amino acid, 400 μg/mL G418 in a 5% CO2 incubator at 37° C. All cell culture reagents were obtained from Invitrogen(Carlsbad). Cells were trypsinized (1% trypsin:EDTA) and plated out at 5×10^3 cells/well in white 96-well assay plates (Costar) dedicated to cell number (cytotoxicity) or antiviral activity assessments. Compounds were added at six 3-fold concentrations each and the assay was run in DMEM, 5% FBS, 1% pen-strep, 1% glutamine, 1% non essential amino acid. Human interferon alpha-2b (PBL Biolabs, New Brunswick, N.J.) was included in each run as a positive control compound. Cells were processed 72 hr post compound addition when the cells are still subconfluent. Antiviral activity was measured by analyzing replicon-derived luciferase activity using the Steady-Glo Luciferase Assay System (Promega, Madison, Wis.) according to manufacturer's instruction. The number of cells in each well was determined by Cell Titer Blue Assay (Promega).

[2] = molecular target: HCV NS3/4A 1b protease WT (Hepatitis C virus genotype 1b, UniProt P26662); test: HCV Protease FRET Assay for wild type NS3/4A 1b enzyme (IC50); type: biochemical; conditions: 30 min pre-incubation
[3] = molecular target: HCV NS3/4A 1b protease D168A (Hepatitis C virus genotype 1b, UniProt P26662, D1194A); test: HCV Protease FRET Assay for mutated NS3/4A 1b enzyme (IC50); type: biochemical; conditions: 30 min pre-incubation
From the text: 279, No. 17, pp 17508-17514.

cKIT in GIST882 cells = molecular target: T2, cKIT in GIST882 cells (Homo sapiens, UniProt P10721, K642E); test: GIST882 cellular assay with washout (western blot); type: cell-based; conditions: for cKIT autophosphorylation / downstream signaling of ERK: 1 micromolar
T2 construct: endogenous in cells; host or cells: GIST882 cells
Description: GIST882 cells were seeded in a 6 well plate at a density of 8×10^5 cells/well in complete media. The next day cells were treated with 1 uM compound diluted in complete media for 90 minutes. After 90 minutes, the media was removed and cells were washed with compound-free media. Cells were washed every 2 hours and resuspended in fresh compound-free media.

c-KIT [4] = molecular target: T1, c-KIT; test: c-KIT mass spectral analysis of tryptic digest; type: binding; conditions: 3 hours at 10× excess, tryptic digest MALDI-TOF
Description: (§1) Iodoacetamide was used as the alkylating agent after compound incubation. For tryptic digests a 5 μl aliquot (14 pmols) was diluted with 10 ul of 0.1% TFA prior to micro C18 Zip Tipping directly onto the MALDI target using alpha cyano-4-hydroxy cinnamic acid as the matrix (5 mg/ml in 0.1% TFA:acetonitrile 50:50).
The tryptic digest was analyzed by mass spectrometer (MALDI-TOF).
as §1, with “incubation. […]” for “incubation.”, “a 2” for “a 5”, “aliquot (3.3” for “aliquot (14”, “10 μl” for “10 ul”, “0.1% TFA:Acetonitrile” for “0.1% TFA:acetonitrile”
For tryptic digests the instrument was set in Reflectron mode with a pulsed extraction setting of 2200. […] Calibration for fragments was done using the P14R fragmentation calibration for the Curved field Reflectron.

CSF1R = CSF1R (Homo sapiens, UniProt P07333); test: CSF1R mass spectral analysis of tryptic digest; type: binding; conditions: 3 hrs at 10× excess, tryptic digest MALDI
Description: Iodoacetamide was used as the alkylating agent after compound incubation. For tryptic digests, a 2 μl aliquot (0.09 μg/μl) was diluted with 10 μl of 0.1% TFA prior to micro C18 Zip Tipping directly onto the MALDI target using alpha cyano-4-hydroxy cinnamic acid as the matrix (5 mg/ml in 0.1% TFA:Acetonitrile 50:50).
For tryptic digests, the instrument was set in Reflectron mode with a pulsed extraction setting of 1800. Calibration was done using the Laser Biolabs Pep Mix standard (1046.54, 1296.69, 1672.92, 2093.09, 2465.20). For CID/PSD analysis the peptide was selected using cursors to set ion gate timing and fragmentation occurred at a laser power about 20% higher and He was used as the collision gas for CID. Calibration for fragments was done using the P14R fragmentation calibration for the Curved field Reflectron. Database searching of the tryptic digest of CSF identified it correctly. […] PSD analysis of this peptide signal (1160.50) gave enough fragments to allow for a database MS/MS ion search which verified the sequence of this peptide.

HCV NS3/4A 1b protease = HCV NS3/4A 1b protease (Hepatitis C virus genotype 1b, UniProt P26662); test: biochemical
Description: An HCV Protease FRET Assay for HCV NS3/4A 1b Enzyme (IC50_APP) was used. The following protocol was used to generate “apparent” IC50 (IC50_APP) values. […] Protease reactions were immediately started after enzyme addition with the addition of 45 μL of the FRET substrate and monitored for 60-90 minutes at λex485/λem520 in a Synergy4 plate reader from BioTek (Winooski, Vt.).

Flt3 [5] = molecular target: T3, Flt3 (Homo sapiens, UniProt P36888); test: FLT3 biochemical assay (continuous-read kinase assay); design: purchased Invitrogen PV3182; conditions: 500 μM ATP; read-out: IC50 for inhibition of FLT3 phosphorylation
T3 sequence (P36888 27-993): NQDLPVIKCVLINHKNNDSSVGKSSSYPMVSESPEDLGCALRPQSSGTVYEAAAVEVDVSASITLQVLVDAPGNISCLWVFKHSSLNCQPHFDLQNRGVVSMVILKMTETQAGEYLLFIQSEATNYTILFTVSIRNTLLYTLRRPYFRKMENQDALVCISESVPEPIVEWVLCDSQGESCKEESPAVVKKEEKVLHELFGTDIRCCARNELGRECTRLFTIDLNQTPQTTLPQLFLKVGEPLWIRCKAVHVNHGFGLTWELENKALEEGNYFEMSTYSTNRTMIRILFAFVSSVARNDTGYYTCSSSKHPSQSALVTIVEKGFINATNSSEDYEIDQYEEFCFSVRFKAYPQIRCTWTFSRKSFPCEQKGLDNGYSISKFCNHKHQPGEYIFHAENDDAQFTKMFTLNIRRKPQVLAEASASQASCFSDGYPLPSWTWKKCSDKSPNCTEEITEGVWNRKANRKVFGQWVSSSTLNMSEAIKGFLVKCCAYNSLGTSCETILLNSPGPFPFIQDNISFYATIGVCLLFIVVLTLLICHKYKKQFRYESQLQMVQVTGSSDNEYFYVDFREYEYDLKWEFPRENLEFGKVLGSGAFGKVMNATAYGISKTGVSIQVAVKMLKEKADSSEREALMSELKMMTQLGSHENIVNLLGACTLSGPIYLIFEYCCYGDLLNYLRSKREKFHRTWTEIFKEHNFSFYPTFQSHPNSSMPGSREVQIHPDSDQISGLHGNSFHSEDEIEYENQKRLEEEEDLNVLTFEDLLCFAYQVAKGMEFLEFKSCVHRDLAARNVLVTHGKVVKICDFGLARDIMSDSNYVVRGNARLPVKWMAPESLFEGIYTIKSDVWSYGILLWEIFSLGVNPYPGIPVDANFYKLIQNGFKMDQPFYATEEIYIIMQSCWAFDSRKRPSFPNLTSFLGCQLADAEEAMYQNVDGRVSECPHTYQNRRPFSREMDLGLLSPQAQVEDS

Flt3 [6] = molecular target: T3, Flt3; test: Flt3 mass spectral analysis of tryptic digest; type: binding; conditions: 3 hrs at 100× excess, tryptic digest MALDI
Description: as §1, with “Flt3 was incubated with Compound 4 for 3 hrs at 100× excess prior to tryptic digestion. Iodoacetamide” for “Iodoacetamide”, “ul” for “μl”, “(7” for “(14”, “TFA:Acetonitrile” for “TFA:acetonitrile”
The mass spec instrument was set in Reflectron mode with a pulsed extraction setting of 1800. Calibration was done using the Laser Biolabs Pep Mix standard (1046.54, 1296.69, 1672.92, 2093.09, 2465.20). For CID/PSD analysis the peptide was selected using cursors to set ion gate timing and fragmentation occurred at a laser power about 20% higher and He was used as the collision gas for CID. Calibration for fragments was done using the P14R fragmentation calibration for the Curved field Reflectron.

Btk = molecular target: T4, Btk (Homo sapiens, UniProt Q06187); test: Omnia assay for potency against Btk; conditions: biochemical assay; read-out: IC50 Btk kinase
T4 construct: purchased Invitrogen
Description: The protocol below describes continuous-read kinase assays to measure inherent potency of compounds against active forms of Btk enzyme. The mechanics of the assay platform are best described by the vendor (Invitrogen, Carlsbad, Calif.) on the world wide web at invitrogen.com/site/us/en/home/Products-and-Services/Applications/Drug-Discovery/Target-and-Lead-Identification-and-Validation/KinaseBiology/KB-Misc/Biochemical-Assays/Omnia-Kinase-Assays.html. Briefly, 10× stocks of 5 nM Btk from Invitrogen, 1.13×40 μM ATP (AS001A) and 10 μM (ATP KMapp ˜[…]) Tyr-Sox conjugated peptide substrates (KCZ 1001) were prepared in 1× kinase reaction buffer consisting of 20 mM Tris, pH 7.5, 5 mM MgCl2, 1 mM EGTA, 5 mM β-glycerophosphate, 5% glycerol (10× stock, KBOO2A) and 0.2 mM DTT (DS001A).

[7] = 1 uM for 90 minutes, then washed free of compound

T2 sequence (P10721 26-976 K642E): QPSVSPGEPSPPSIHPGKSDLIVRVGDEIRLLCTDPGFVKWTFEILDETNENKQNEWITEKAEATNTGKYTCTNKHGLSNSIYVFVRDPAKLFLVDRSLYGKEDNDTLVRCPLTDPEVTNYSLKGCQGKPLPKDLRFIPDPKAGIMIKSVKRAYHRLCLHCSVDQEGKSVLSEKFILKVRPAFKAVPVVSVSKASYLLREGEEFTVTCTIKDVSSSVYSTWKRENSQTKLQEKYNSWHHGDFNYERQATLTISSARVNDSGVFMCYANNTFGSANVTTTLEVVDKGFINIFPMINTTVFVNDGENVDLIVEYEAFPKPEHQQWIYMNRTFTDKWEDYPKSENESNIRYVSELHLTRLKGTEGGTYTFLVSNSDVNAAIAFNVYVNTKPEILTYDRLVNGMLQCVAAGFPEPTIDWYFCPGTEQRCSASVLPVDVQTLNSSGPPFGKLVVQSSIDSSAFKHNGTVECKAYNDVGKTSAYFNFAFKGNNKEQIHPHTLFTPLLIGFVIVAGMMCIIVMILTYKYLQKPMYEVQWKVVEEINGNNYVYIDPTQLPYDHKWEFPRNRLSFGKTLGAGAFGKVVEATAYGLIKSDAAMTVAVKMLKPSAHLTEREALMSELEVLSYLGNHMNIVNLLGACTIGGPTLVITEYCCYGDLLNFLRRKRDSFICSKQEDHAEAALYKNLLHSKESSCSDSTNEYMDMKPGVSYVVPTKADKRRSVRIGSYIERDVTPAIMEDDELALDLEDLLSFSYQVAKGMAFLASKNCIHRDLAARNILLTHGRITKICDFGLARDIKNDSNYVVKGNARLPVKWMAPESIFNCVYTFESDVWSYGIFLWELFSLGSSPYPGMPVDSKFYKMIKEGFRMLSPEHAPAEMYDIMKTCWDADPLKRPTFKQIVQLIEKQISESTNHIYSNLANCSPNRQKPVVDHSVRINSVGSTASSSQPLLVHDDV
T1 sequence (P10721 26-976): as the sequence (P10721 26-976 K642E) above, with E617K counted along it
Chain of HCV NS3/4A 1b protease WT (P26662 1658-1711): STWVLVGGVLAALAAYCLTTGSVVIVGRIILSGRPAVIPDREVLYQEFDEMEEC
Chain of HCV NS3/4A 1b protease WT (P26662 1027-1208): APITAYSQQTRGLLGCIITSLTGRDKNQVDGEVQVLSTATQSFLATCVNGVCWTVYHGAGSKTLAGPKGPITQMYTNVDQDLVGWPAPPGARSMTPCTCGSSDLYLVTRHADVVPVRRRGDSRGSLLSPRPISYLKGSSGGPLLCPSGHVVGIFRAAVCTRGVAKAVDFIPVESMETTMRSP
Chain of CSF1R (FMS) (P07333 20-972): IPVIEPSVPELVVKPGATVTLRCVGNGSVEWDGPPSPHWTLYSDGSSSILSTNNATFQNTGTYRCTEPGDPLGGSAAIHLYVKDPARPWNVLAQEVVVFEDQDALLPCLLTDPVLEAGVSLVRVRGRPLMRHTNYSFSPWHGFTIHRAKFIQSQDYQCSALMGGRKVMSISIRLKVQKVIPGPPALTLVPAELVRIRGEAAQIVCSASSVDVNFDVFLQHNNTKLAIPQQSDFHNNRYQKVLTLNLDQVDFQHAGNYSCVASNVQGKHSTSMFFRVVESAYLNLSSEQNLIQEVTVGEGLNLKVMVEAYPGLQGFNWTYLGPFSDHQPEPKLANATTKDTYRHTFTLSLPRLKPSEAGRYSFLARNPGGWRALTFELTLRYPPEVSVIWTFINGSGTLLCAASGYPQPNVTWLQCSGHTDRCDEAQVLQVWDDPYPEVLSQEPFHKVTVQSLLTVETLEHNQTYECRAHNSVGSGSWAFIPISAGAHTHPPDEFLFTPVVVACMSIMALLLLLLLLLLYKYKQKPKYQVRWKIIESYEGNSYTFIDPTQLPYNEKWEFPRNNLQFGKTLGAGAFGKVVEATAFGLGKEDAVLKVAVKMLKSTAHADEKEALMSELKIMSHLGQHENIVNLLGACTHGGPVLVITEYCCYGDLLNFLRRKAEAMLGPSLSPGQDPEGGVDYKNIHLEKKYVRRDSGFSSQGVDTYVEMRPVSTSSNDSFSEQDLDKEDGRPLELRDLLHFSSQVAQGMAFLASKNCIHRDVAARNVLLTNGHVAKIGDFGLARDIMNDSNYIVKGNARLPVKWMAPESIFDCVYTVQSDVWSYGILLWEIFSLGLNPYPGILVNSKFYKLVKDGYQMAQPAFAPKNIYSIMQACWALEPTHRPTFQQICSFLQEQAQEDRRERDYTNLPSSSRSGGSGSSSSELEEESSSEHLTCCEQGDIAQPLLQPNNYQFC
Chain of HCV NS3/4A 1b protease D168A (P26662 1027-1208 D1194A): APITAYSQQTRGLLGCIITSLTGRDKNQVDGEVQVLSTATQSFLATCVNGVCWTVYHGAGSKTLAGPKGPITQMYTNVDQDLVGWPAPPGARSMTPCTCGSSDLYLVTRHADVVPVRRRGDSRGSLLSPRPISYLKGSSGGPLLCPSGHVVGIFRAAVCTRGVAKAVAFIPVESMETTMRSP
Chain of HCV NS3/4A 1b protease D168A (P26662 1658-1711 partner limits assumed): as the sequence (P26662 1658-1711) above
Chain of HCV NS3/4A 1b protease (P26662 1027-1208): as the sequence (P26662 1027-1208) above
Chain of HCV NS3/4A 1b protease (P26662 1658-1711): as the sequence (P26662 1658-1711) above
T4 sequence (Q06187 whole entry): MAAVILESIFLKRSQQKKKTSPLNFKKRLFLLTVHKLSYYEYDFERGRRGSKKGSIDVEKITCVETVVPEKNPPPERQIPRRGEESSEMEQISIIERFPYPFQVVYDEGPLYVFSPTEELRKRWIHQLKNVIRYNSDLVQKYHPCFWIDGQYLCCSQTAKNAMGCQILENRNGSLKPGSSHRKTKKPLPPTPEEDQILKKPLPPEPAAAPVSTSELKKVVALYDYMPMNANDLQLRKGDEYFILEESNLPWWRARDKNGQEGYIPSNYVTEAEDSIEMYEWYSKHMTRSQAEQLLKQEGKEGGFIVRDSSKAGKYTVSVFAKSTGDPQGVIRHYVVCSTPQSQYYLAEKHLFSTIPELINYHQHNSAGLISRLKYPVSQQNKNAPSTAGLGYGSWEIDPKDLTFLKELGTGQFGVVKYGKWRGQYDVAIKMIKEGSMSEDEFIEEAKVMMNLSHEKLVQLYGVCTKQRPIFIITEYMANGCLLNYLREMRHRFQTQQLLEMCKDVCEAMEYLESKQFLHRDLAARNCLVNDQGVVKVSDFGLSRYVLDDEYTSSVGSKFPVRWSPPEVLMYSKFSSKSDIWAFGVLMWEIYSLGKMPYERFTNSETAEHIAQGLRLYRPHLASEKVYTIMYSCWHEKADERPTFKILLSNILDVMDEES
Chain of CSF1R (P07333 20-972): as the sequence (P07333 20-972) above

## C=CC(=O)Nc1ccc(C(=O)Nc2ccc(C)c(Nc3nccc(-c4cccnc4)n3)c2)cc1 [Compound 1, 4-acrylamido-N-(4-methyl-3-(4-(pyridin-3-yl)pyrimidin-2-ylamino)phenyl)benzamide]
CSF1R (FMS); 10 μM compound
  inhibition at 10 µM: 72%
c-KIT [1]; read-out: % Inhibition of c-KIT
  inhibition at 1 µM: 82%

## C=CC(=O)NC[C@H](NC(=O)OC(C)(C)C)C(=O)N1C[C@H](Oc2cc(-c3ccccc3)nc3cc(OC)ccc23)C[C@H]1C(=O)N[C@]1(C(=O)NS(=O)(=O)c2ccccc2)C[C@H]1C=C [Compound 6, N-[(1,1-dimethylethoxy)carbonyl]-3-[(2-propenoyl)amino]-L-alanyl-(4R)-4-[(7-methoxy-2-phenyl-4-quinolinyl)oxy]-L-prolyl-1-amino-2-ethenyl-N-(phenylsulfonyl)-(1R,2S)-cyclopropanecarboxamide]
HCV RNA replicon
  EC50: 174 nM

## C=C[C@@H]1C[C@]1(NC(=O)[C@@H]1C[C@@H](Oc2cc(-c3ccccc3)nc3cc(OC)ccc23)CN1C(=O)CNC(=O)CC)C(=O)NS(=O)(=O)c1ccccc1 [Compound 11, reference compound]
[2]
  IC50: 165 nM
HCV RNA replicon
  EC50: > 3000 nM
[3]
  IC50: > 3000 nM

## C=CC(=O)Nc1ccc(NC(=O)Nc2ccc(Oc3ccnc(C(=O)NC)c3)cc2)cc1C(F)(F)F [Compound 7, 4-(4-(3-(4-Acrylamido-3-(trifluoromethyl)phenyl)ureido)phenoxy)-N-methylpicolinamide]
cKIT in GIST882 cells; [7]
  persistence of inhibition after washout: at least 8 hours
cKIT in GIST882 cells
  cKIT autophosphorylation: inhibited
  downstream signaling of ERK: inhibited
c-KIT [4]
  covalent modification of c-KIT (site or peptide): NCIHR
c-KIT [1]; inhibition of cKIT phosphorylation
  IC50: 31 nM

## C=CC(=O)Nc1ccc(C(=O)Nc2ccc(C)c(Nc3nccc(-c4cccnc4)n3)c2)cc1C(F)(F)F [Compound 2, 4-Acrylamido-N-(4-methyl-3-(4-pyridin-3-yl)pyrimidin-2-ylamino)phenyl-3-(trifluoromethyl)benzamide]
CSF1R
  covalent modification of CSF1R (modified peptide): NCIHR
CSF1R (FMS)
  inhibition at 10 µM: 89%

## CNC(=O)c1cc(Oc2ccc(NC(=O)Nc3ccc(Cl)c(C(F)(F)F)c3)cc2)ccn1 [Sorafenib, sorafenib, reference compound]
cKIT in GIST882 cells; [7]
  inhibitory activity of ckit and downstream signaling after washout: overcome
cKIT in GIST882 cells
  cKIT autophosphorylation: inhibited
  downstream signaling of ERK: inhibited

## C=CC(=O)NCC(=O)N1C[C@H](Oc2cc(-c3ccccc3)nc3cc(OC)ccc23)C[C@H]1C(=O)N[C@]1(C(=O)NS(=O)(=O)c2ccccc2)C[C@H]1C=C [Compound 12, (2S,4R)-1-(2-acrylamidoacetyl)-4-(7-methoxy-2-phenylquinolin-4-yloxy)-N-((1R,2S)-1-(phenylsulfonylcarbamoyl)-2-vinylcyclopropyl)pyrrolidine-2-carboxamide]
[2]
  IC50: 0.3 nM
HCV RNA replicon
  EC50: 204 nM
[3]
  IC50: 17 nM

## Cc1ccc(C(=O)Nc2ccc(NC(=O)CCl)c(C(F)(F)F)c2)cc1Nc1nccc(-c2cccnc2)n1 [Compound 3]
c-KIT [4]
  covalent modification of c-KIT (site or peptide): Cys788 (major) and: Cys808 (minor)

## C=CC1C[C@]1(NC(=O)[C@@H]1C[C@@H](Oc2cc(-c3ccccc3)nc3cc(OC)ccc23)CN1C(=O)C(NC(=O)OC(C)(C)C)C(C)C)C(=O)NS(=O)(=O)c1ccccc1 (stereo partly drawn) [Compound V-1, reference compound]
HCV NS3/4A 1b protease
  IC50: 0.4 nM

## C=CC(=O)Nc1ccc(Sc2nc(Nc3cc(C)n[nH]3)cc(N3CCN(C)CC3)n2)cc1 [Compound 4, N-(4-(4-(3-Methyl-1H-pyrazol-5-ylamino)-6-(4-methylpiperiazin-1-yl)pyrimidin-2ylthio)phenyl)acrylamide]
Flt3 [5]
  IC50: 2.2 nM
Flt3 [6]
  covalent modification of Flt3 (modified peptide): ICDFGLAR with Compound 4 attached

## CCC(=O)Nc1cccc(Nc2cc(Nc3ccc(Oc4ccccc4)cc3)ncn2)c1 [Compound 9]
Btk
  IC50: 8.6 µM
